Experiments:
[1] = tested on: hyperreactive spasmus induced by acetylcholine challenge; test: Hyperreactive spasmus induced by acetylcholine challenge in anaesthetized guinea-pigs submitted to forced tobacco-smoking respiration; assay type: in vivo; conditions: for activity as reference substance in the acetylcholine challenge procedure: i.m. administration
[2] = tested on: tracheo-bronchial mucus secretion; test: Red phenol secretion in BAL (mucus secretion); assay type: in vivo, Albino Swiss male mice
Method: (§1) The ability of a drug to modify the tracheo-bronchial mucus secretion is evaluated measuring the excretion of a dyestuff in the respiratory tree.
(§2) Albino Swiss male mice are used in this test and the animals are killed 30 minutes after dye treatment. The dye content in BAL's is evaluated spectrometrically at 546 nm.
An increased red phenol secretion in BAL's after drug treatment means stimulation of mucus production.

[3] = tested on: tracheo-bronchial mucus secretion; test: Uranine secretion in BAL (mucus secretion); assay type: in vivo, Albino Swiss female mice
Method: as §1
The animals are sacrified 30 minutes after; the respiratory tree is excised and accurately washed. The washing fluids (BAL) are collected and evaluated for the uranine content using a spectrofluorimetric technique.
as §2

[4] = tested on: tracheo-bronchial mucus secretion; test: Time-course of red phenol excretion (long-lasting action); assay type: in vivo, Albino Swiss male mice
Method: as §2
Infact, a substance can be administered 2, 1 and 1/2 hours before the intraperitoneal administration of the red phenol marker. If the animals are killed, as usual, half an hour after the dyestuff treatment, the overall time of drug action increases from 1 hr to 11/2 and 21/2 hrs respectively.

[5] = tested on: tracheo-bronchial mucus secretion; conditions: known effect of therapeutically active drugs; cited from earlier work
[6] = 100 mg/kg os, overall experiment 1 1/2 hours
[7] = 100 mg/kg os, overall experiment 2 1/2 hours
[8] = 100 mg/kg os, overall experiment 1 hour

## C[C@H]1C[C@@H]2[C@H]([C@@H](O)C[C@@]3(C)[C@H]2CC[C@]3(O)C(=O)CO)[C@@]2(C)C=CC(=O)C=C12 [6-α-methylprednisolone]
[1]
  activity as reference substance in the acetylcholine challenge procedure: Positive

## COc1ccccc1OCCSCC(=O)O [Substance A, 3-thia-5-(2-methoxy-phenoxy)-pentanoic acid]
[2]; 25 mg/kg os
  % increase of dyestuff secretion in BAL (vs. untreated animals), red phenol: 25%
[2]; 50 mg/kg os
  % increase of dyestuff secretion in BAL (vs. untreated animals), red phenol: 50%
[2]; 100 mg/kg os
  % increase of dyestuff secretion in BAL (vs. untreated animals), red phenol: 104%
[3]; 25 mg/kg os
  % increase of dyestuff secretion in BAL (vs. untreated animals), uranine: 45%
[3]; 50 mg/kg os
  % increase of dyestuff secretion in BAL (vs. untreated animals), uranine: 98%
[3]; 100 mg/kg os
  % increase of dyestuff secretion in BAL (vs. untreated animals), uranine: 138%
[4]; [6]
  Time-course of % increase of red phenol excretion (vs. untreated animals): 98%
[4]; [7]
  Time-course of % increase of red phenol excretion (vs. untreated animals): 62%
[4]; [8]
  Time-course of % increase of red phenol excretion (vs. untreated animals): 104%

## COc1ccccc1OCCSCC(=O)NCc1cccnc1 [Substance B, N-(3-pyridyl)methy 1-3-thia-5 (2-methoxy-phenoxy)pentanoic acid amide]
[2]; 25 mg/kg os
  % increase of dyestuff secretion in BAL (vs. untreated animals), red phenol: 12%
[2]; 50 mg/kg os
  % increase of dyestuff secretion in BAL (vs. untreated animals), red phenol: 73%
[2]; 100 mg/kg os
  % increase of dyestuff secretion in BAL (vs. untreated animals), red phenol: 126%
[3]; 25 mg/kg os
  % increase of dyestuff secretion in BAL (vs. untreated animals), uranine: 70%
[3]; 50 mg/kg os
  % increase of dyestuff secretion in BAL (vs. untreated animals), uranine: 140%
[3]; 100 mg/kg os
  % increase of dyestuff secretion in BAL (vs. untreated animals), uranine: 190%
[4]; [6]
  Time-course of % increase of red phenol excretion (vs. untreated animals): 119%
[4]; [7]
  Time-course of % increase of red phenol excretion (vs. untreated animals): 62%
[4]; [8]
  Time-course of % increase of red phenol excretion (vs. untreated animals): 126%
[1]; e.v. treatment, 5 to 30 mg/kg, forced tobacco-smoking respiration
  reduction of hyperreactive spasmus induced by acetylcholine challenge: able to reduce the hyperreactive spasmus induced by acetylcholine challenge in dose dependent way

## COc1ccccc1OCC1COC(CSCC(=O)O)O1 (centres unmarked) [Substance C, 3-thia-4-[4-(2-methoxy-phenoxy)methyl-(Z,E)-dioxolan-2-yl]-butanoic acid]
[2]; 25 mg/kg os
  % increase of dyestuff secretion in BAL (vs. untreated animals), red phenol: 47%
[2]; 50 mg/kg os
  % increase of dyestuff secretion in BAL (vs. untreated animals), red phenol: 83%
[2]; 100 mg/kg os
  % increase of dyestuff secretion in BAL (vs. untreated animals), red phenol: 143%
[3]; 25 mg/kg os
  % increase of dyestuff secretion in BAL (vs. untreated animals), uranine: 25%
[3]; 50 mg/kg os
  % increase of dyestuff secretion in BAL (vs. untreated animals), uranine: 52%
[3]; 100 mg/kg os
  % increase of dyestuff secretion in BAL (vs. untreated animals), uranine: 101%
[4]; [6]
  Time-course of % increase of red phenol excretion (vs. untreated animals): 72%
[4]; [7]
  Time-course of % increase of red phenol excretion (vs. untreated animals): 42%
[4]; [8]
  Time-course of % increase of red phenol excretion (vs. untreated animals): 143%

## COc1ccccc1OCC1COC(CSCC(=O)NCc2cccnc2)O1 (centres unmarked) [Substance D, N-(3-pyridyl)methyl-3-thia-4-[4-(2-methoxy-phenoxy)-methyl-(Z,E)-(1,3)-dioxolan-2-yl]-butanoic acid amide]
[2]; 25 mg/kg os
  % increase of dyestuff secretion in BAL (vs. untreated animals), red phenol: 49%
[2]; 50 mg/kg os
  % increase of dyestuff secretion in BAL (vs. untreated animals), red phenol: 120%
[2]; 100 mg/kg os
  % increase of dyestuff secretion in BAL (vs. untreated animals), red phenol: 179%
[3]; 25 mg/kg os
  % increase of dyestuff secretion in BAL (vs. untreated animals), uranine: 66%
[3]; 50 mg/kg os
  % increase of dyestuff secretion in BAL (vs. untreated animals), uranine: 132%
[3]; 100 mg/kg os
  % increase of dyestuff secretion in BAL (vs. untreated animals), uranine: 284%
[4]; [6]
  Time-course of % increase of red phenol excretion (vs. untreated animals): 111%
[4]; [7]
  Time-course of % increase of red phenol excretion (vs. untreated animals): 58%
[4]; [8]
  Time-course of % increase of red phenol excretion (vs. untreated animals): 179%

## CN(Cc1cc(Br)cc(Br)c1N)C1CCCCC1 [Substance E, bromexine, reference compound]
[2]; 25 mg/kg os
  % increase of dyestuff secretion in BAL (vs. untreated animals), red phenol: 28%
[2]; 50 mg/kg os
  % increase of dyestuff secretion in BAL (vs. untreated animals), red phenol: 69%
[2]; 100 mg/kg os
  % increase of dyestuff secretion in BAL (vs. untreated animals), red phenol: 83%
[3]; 25 mg/kg os
  % increase of dyestuff secretion in BAL (vs. untreated animals), uranine: 0%
[3]; 50 mg/kg os
  % increase of dyestuff secretion in BAL (vs. untreated animals), uranine: 50%
[3]; 100 mg/kg os
  % increase of dyestuff secretion in BAL (vs. untreated animals), uranine: 63%
[4]; [6]
  Time-course of % increase of red phenol excretion (vs. untreated animals): 61%
[4]; [7]
  Time-course of % increase of red phenol excretion (vs. untreated animals): 21%
[4]; [8]
  Time-course of % increase of red phenol excretion (vs. untreated animals): 98%
[5]
  uranine content in the BAL's in respect to control values (in words): increase the uranine content in the BAL's in a dose dependent way

## CC1=CCC(C(C)(C)O)CC1O (centres unmarked) [Substance F, sobrerol, reference compound]
[2]; 50 mg/kg os
  % increase of dyestuff secretion in BAL (vs. untreated animals), red phenol: 48%
[2]; 100 mg/kg os
  % increase of dyestuff secretion in BAL (vs. untreated animals), red phenol: 69%
[2]; 200 mg/kg os
  % increase of dyestuff secretion in BAL (vs. untreated animals), red phenol: 111%
[3]; 50 mg/kg os
  % increase of dyestuff secretion in BAL (vs. untreated animals), uranine: 54%
[3]; 100 mg/kg os
  % increase of dyestuff secretion in BAL (vs. untreated animals), uranine: 104%
[3]; 200 mg/kg os
  % increase of dyestuff secretion in BAL (vs. untreated animals), uranine: 144%
[4]; 200 mg/kg os, overall experiment 1 1/2 hours
  Time-course of % increase of red phenol excretion (vs. untreated animals): 73%
[4]; 200 mg/kg os, overall experiment 2 1/2 hours
  Time-course of % increase of red phenol excretion (vs. untreated animals): 30%
[4]; 200 mg/kg os, overall experiment 1 hour
  Time-course of % increase of red phenol excretion (vs. untreated animals): 108%
[5]
  uranine content in the BAL's in respect to control values (in words): increase the uranine content in the BAL's in a dose dependent way

## O=C(O)c1cc(=O)c2c(OCC(O)COc3cccc4oc(C(=O)O)cc(=O)c34)cccc2o1 [sodium dichromoglicate]
[1]
  activity as reference substance in the acetylcholine challenge procedure: Positive

— patent publication US4968706A, “Ethers and thioethers having therapeutical activity, their preparation and pharmaceutical compositions containing them” (priority 1987, dated 1990)
